The values that follow come from article PMC6179086 (Journal of Enzyme Inhibition and Medicinal Chemistry, 2018).

Each structure is given as a SMILES string.

Common to all, as to test: stopped-flow CO2 hydration assay
What all share (type): biochemical

Experiment [1] concerns the target T1, SspCA (Sulfurihydrogenibium sp. YO3AOP1, UniProt B2V8E3).
T1 construct: recombinant bacterial alpha-CA, produced as reported earlier
T1 sequence (B2V8E3 21-246): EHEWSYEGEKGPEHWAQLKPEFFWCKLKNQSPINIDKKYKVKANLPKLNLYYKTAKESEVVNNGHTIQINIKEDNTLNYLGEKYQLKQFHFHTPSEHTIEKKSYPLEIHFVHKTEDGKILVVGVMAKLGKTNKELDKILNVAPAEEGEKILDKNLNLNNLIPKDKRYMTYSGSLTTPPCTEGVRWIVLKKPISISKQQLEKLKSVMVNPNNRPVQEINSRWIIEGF
Conditions: read-out: Inhibition constant, Ki (μM) / α-family / Ssp.

The target in experiment [2] is T2, Can2-CA (Cryptococcus neoformans, UniProt Q3I4V7).
T2 construct: recombinant beta-CA, produced as reported earlier; dimer in the docking model
T2 sequence (Q3I4V7 1-239): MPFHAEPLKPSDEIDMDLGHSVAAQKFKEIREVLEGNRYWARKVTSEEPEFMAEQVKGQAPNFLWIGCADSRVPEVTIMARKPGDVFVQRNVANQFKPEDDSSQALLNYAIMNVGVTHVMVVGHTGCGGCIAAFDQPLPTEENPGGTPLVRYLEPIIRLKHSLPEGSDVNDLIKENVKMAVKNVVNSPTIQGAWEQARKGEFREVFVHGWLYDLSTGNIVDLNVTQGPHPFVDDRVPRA
The conditions noted are these: read-out: Inhibition constant, Ki (μM) / β-family / Can2.

In experiment [3] the target is T3, hCA IX (Homo sapiens, UniProt Q16790).
T3 construct: gene CA9
Conditions: read-out: Inhibition constant, Ki (μM) / α-family / CAI.

Experiment [4] concerns the target T4, MgCA (Malassezia globosa, UniProt A8Q1N3).
T4 construct: gene MGL_1814
T4 sequence (A8Q1N3 1-241): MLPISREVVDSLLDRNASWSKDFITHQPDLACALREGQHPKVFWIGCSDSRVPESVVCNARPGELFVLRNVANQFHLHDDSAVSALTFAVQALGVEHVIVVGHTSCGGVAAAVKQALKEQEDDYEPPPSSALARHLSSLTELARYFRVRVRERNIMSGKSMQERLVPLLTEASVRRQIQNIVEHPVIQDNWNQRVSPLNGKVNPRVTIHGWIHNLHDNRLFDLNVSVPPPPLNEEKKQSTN
The conditions noted are these: read-out: Inhibition constant, Ki (μM) / β-family / Mg.

Experiment [5] deals with T5, VchCA (Vibrio cholerae, UniProt A0A086SLX8).
T5 construct: gene can
T5 sequence (A0A086SLX8 1-222): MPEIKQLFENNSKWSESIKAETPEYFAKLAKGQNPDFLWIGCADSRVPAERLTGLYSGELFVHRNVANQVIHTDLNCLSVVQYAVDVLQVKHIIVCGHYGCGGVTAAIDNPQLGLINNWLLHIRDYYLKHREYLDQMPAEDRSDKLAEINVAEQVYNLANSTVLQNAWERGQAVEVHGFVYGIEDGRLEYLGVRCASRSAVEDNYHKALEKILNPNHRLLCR

As for `CCc1cc(C)[n+]([O-])c(N)c1C(N)=O` [compound 19, 19], the Ki in experiment [1] came to 42.2 µM.

For the compound `CCc1cc(C(C)C)[n+]([O-])c(N)c1C(N)=O` [compound 16, 16], in experiment [1], the Ki is 58.5 µM.

In the case of `Cc1cnc(C(N)=O)c[n+]1[O-]` [compound 31, 31], the Ki in experiment [2] worked out at 1.3 µM.

On to `NC(=O)c1ncc[n+]([O-])c1N` [compound 30, 30], for which the Ki in experiment [3] was greater than 100 µM; in experiment [2], 1.1 µM; in experiment [4] it was 6.7 µM.

Consider `CCc1cc(C(C)C)c(C(N)=O)c(N)[n+]1[O-]` [compound 13, 13], for which the Ki in experiment [5] came out at 2.8 µM.

Regarding `NC(=O)c1ccc[n+]([O-])c1N` [compound 5, 5], the Ki was found to be 2.1 µM in experiment [5] and 1.7 µM in experiment [2].

`CCc1cc(-c2ccccc2)c(C(N)=O)c(N)[n+]1[O-]` [compound 21, 21] came in with a Ki in experiment [5] of 2.2 µM.

Take `CC(C)c1cc(-c2ccccc2)c(C(N)=O)c(N)[n+]1[O-]` [compound 20, 20]: the Ki in experiment [4] worked out at 46.2 µM.
